Like-named read-outs stand apart in the source and are kept apart here.
Assays:
EKVX = experiment: cells; settings: Homo sapiens, 48 h; for GI50: read-out: Median Growth Inhibitory Concentration (GI50); for CC50: read-out: Median Lethal Concentration (LC50)
CAKI-1 = experiment: cells; settings: Homo sapiens, CAKI-1, 48 h; for GI50: read-out: Median Growth Inhibitory Concentration (GI50); for CC50: read-out: Median Lethal Concentration (LC50)
786-0 = experiment: cells; settings: Homo sapiens, 786-0, 48 h; for GI50: read-out: Median Growth Inhibitory Concentration (GI50); for CC50: read-out: Median Lethal Concentration (LC50)
MDA-MB-231 = experiment: cells; settings: Homo sapiens, MDA-MB-231, 48 h; for GI50: read-out: Median Growth Inhibitory Concentration (GI50); for CC50: read-out: Median Lethal Concentration (LC50)
SF-295 = experiment: cells; settings: Homo sapiens, SF-295, 48 h; for GI50: read-out: Median Growth Inhibitory Concentration (GI50); for CC50: read-out: Median Lethal Concentration (LC50)
[1] = test system: Vascular Endothelial Growth Factor (VEGF) production by human melanoma cell line RPMI-7951; experiment: VEGF ELISA, RPMI-7951; settings: for VEGF ELISA / VEGF: RPMI-7951; for VEGF ELISA: DMSO control 3713
NCI-H23 = experiment: cells; settings: Homo sapiens, NCI-H23, 48 h; for GI50: read-out: Median Growth Inhibitory Concentration (GI50); for CC50: read-out: Median Lethal Concentration (LC50)
RPMI-7951 human melanoma = experiment: Neutral Red Assay, cell viability, RPMI-7951; settings: Homo sapiens
NCI/ADR-RES = experiment: cells; settings: Homo sapiens, 48 h; for GI50: read-out: Median Growth Inhibitory Concentration (GI50); for CC50: read-out: Median Lethal Concentration (LC50)
SK-MEL-2 = experiment: cells; settings: Homo sapiens, SK-MEL-2, 48 h; for GI50: read-out: Median Growth Inhibitory Concentration (GI50); for CC50: read-out: Median Lethal Concentration (LC50)
SNB-19 = experiment: cells; settings: Homo sapiens, SNB-19, 48 h; for GI50: read-out: Median Growth Inhibitory Concentration (GI50); for CC50: read-out: Median Lethal Concentration (LC50)
HL-60 (TB) = experiment: cells; settings: Homo sapiens, HL-60, 48 h; for GI50: read-out: Median Growth Inhibitory Concentration (GI50); for CC50: read-out: Median Lethal Concentration (LC50)
NCI-H226 = experiment: cells; settings: Homo sapiens, NCI-H226, 48 h; for GI50: read-out: Median Growth Inhibitory Concentration (GI50); for CC50: read-out: Median Lethal Concentration (LC50)
NCI-H522 = experiment: cells; settings: Homo sapiens, NCI-H522, 48 h; for GI50: read-out: Median Growth Inhibitory Concentration (GI50); for CC50: read-out: Median Lethal Concentration (LC50)
HT29 = experiment: cells; settings: Homo sapiens, HT-29, 48 h; for GI50: read-out: Median Growth Inhibitory Concentration (GI50); for CC50: read-out: Median Lethal Concentration (LC50)
UACC-62 = experiment: cells; settings: Homo sapiens, UACC-62, 48 h; for GI50: read-out: Median Growth Inhibitory Concentration (GI50); for CC50: read-out: Median Lethal Concentration (LC50)
U251 = experiment: cells; settings: Homo sapiens, U-251, 48 h; for GI50: read-out: Median Growth Inhibitory Concentration (GI50); for CC50: read-out: Median Lethal Concentration (LC50)
A498 = experiment: cells; settings: Homo sapiens, A498, 48 h; for GI50: read-out: Median Growth Inhibitory Concentration (GI50); for CC50: read-out: Median Lethal Concentration (LC50)
LOX IMVI = experiment: cells; settings: Homo sapiens, 48 h; for GI50: read-out: Median Growth Inhibitory Concentration (GI50)
MDA-MB-435 = experiment: cells; settings: Homo sapiens, MDA-MB-435, 48 h; for GI50: read-out: Median Growth Inhibitory Concentration (GI50); for CC50: read-out: Median Lethal Concentration (LC50)
HS 578T = experiment: cells; settings: Homo sapiens, 48 h; for GI50: read-out: Median Growth Inhibitory Concentration (GI50); for CC50: read-out: Median Lethal Concentration (LC50)
MOLT-4 = experiment: cells; settings: Homo sapiens, MOLT-4, 48 h; for GI50: read-out: Median Growth Inhibitory Concentration (GI50); for CC50: read-out: Median Lethal Concentration (LC50)
SF-539 = experiment: cells; settings: Homo sapiens, SF-539, 48 h; for GI50: read-out: Median Growth Inhibitory Concentration (GI50); for CC50: read-out: Median Lethal Concentration (LC50)
SW-620 = experiment: cells; settings: Homo sapiens, SW-620, 48 h; for GI50: read-out: Median Growth Inhibitory Concentration (GI50); for CC50: read-out: Median Lethal Concentration (LC50)
COLO 205 = experiment: cells; settings: Homo sapiens, COLO 205, 48 h; for GI50: read-out: Median Growth Inhibitory Concentration (GI50); for CC50: read-out: Median Lethal Concentration (LC50)
PC-3 = experiment: cells; settings: Homo sapiens, PC-3, 48 h; for GI50: read-out: Median Growth Inhibitory Concentration (GI50); for CC50: read-out: Median Lethal Concentration (LC50)
ACHN = experiment: cells; settings: Homo sapiens, 48 h; for GI50: read-out: Median Growth Inhibitory Concentration (GI50); for CC50: read-out: Median Lethal Concentration (LC50)
UACC-257 = experiment: cells; settings: Homo sapiens, UACC-257, 48 h; for GI50: read-out: Median Growth Inhibitory Concentration (GI50); for CC50: read-out: Median Lethal Concentration (LC50)
IGROV1 = experiment: cells; settings: Homo sapiens, IGROV-1, 48 h; for GI50: read-out: Median Growth Inhibitory Concentration (GI50); for CC50: read-out: Median Lethal Concentration (LC50)
[2] = Homo sapiens, RPMI-7951, 72 h, read-out: VEGF
[3] = RPMI-7951, 72 h, read-out: Neutral Red Uptake, %
[4] = RPMI-7951, read-out: Cell Viability

`O=C1C(=Cc2ccccc2O)CCCC1=Cc1ccccc1O` [EF4, 2,6Bis(2-hydroxybenzylidene)cyclohexanone] showed a GI50 (EKVX) of 2.3 µM, a CC50 (EKVX) of 37.2 µM and a GI50 (CAKI-1) of 3.1 µM. For the same compound, the CC50 (CAKI-1) was > 100 µM, the GI50 (786-0) was 2.3 µM and the CC50 (786-0) was 15.9 µM. The GI50 (MDA-MB-231) was 3.5 µM, the CC50 (MDA-MB-231) was > 100 µM and the GI50 (SF-295) was 3.4 µM. It also gave a CC50 (SF-295) of 79.5 µM, an activity at 5 µM [1, 2] of 70% and an activity at 20 µM [1, 2] of 0%. The “VEGF ELISA” value ([1]; 5 μM) was 2159 pg/ml/well, the VEGF ([1]; 5 μM, DMSO control 4197 (EF-25: 1045)) was 2920 pg/mL and the “VEGF ELISA” value ([1]; 20 μM) was 199 pg/ml/well. The VEGF ([1]; 20 μM, DMSO control 4197) was 0 pg/mL, the GI50 (NCI-H23) was 1.8 µM and the CC50 (NCI-H23) was 9.4 µM. For the same compound, the viability at 5 µM (RPMI-7951 human melanoma; [3]) was 98%, the viability at 20 µM (RPMI-7951 human melanoma; [3]) was 4% and the viability at 5 µM (RPMI-7951 human melanoma; [4]) was 102%. For the same compound, the viability at 20 µM (RPMI-7951 human melanoma; [4]) was 38%, the GI50 (NCI/ADR-RES) was 2.7 µM and the CC50 (NCI/ADR-RES) was > 100 µM. The GI50 (SK-MEL-2) was 2.4 µM, the CC50 (SK-MEL-2) was 25.3 µM and the GI50 (SNB-19) was 3.2 µM. It also gave a CC50 (SNB-19) of 42.3 µM, a GI50 (HL-60 (TB)) of 1.9 µM and a CC50 (HL-60 (TB)) of 53.5 µM. The GI50 (NCI-H226) was 19 µM, the CC50 (NCI-H226) was > 100 µM and the GI50 (NCI-H522) was 2.9 µM. The CC50 (NCI-H522) was > 100 µM, the GI50 (HT29) was 2.2 µM and the CC50 (HT29) was 29.1 µM. The GI50 (UACC-62) was 1.5 µM, the CC50 (UACC-62) was 6.1 µM and the GI50 (U251) was 2 µM. For the same compound, the CC50 (U251) was 18.5 µM, the GI50 (A498) was 2.2 µM and the CC50 (A498) was 16.2 µM. The GI50 (LOX IMVI) was 2.2 µM, the GI50 (MDA-MB-435) was 1.8 µM and the CC50 (MDA-MB-435) was 8 µM. For the same compound, the GI50 (HS 578T) was 5.1 µM, the CC50 (HS 578T) was > 100 µM and the GI50 (MOLT-4) was 2.2 µM. The CC50 (MOLT-4) was 69.5 µM, the GI50 (SF-539) was 2 µM and the CC50 (SF-539) was 24.7 µM. For the same compound, the GI50 (SW-620) was 2.7 µM, the CC50 (SW-620) was 76.3 µM and the GI50 (COLO 205) was 2 µM. For the same compound, the CC50 (COLO 205) was 8.7 µM, the GI50 (PC-3) was 2.1 µM and the CC50 (PC-3) was 28.6 µM. For the same compound, the GI50 (ACHN) was 3.3 µM, the CC50 (ACHN) was 32.7 µM and the GI50 (UACC-257) was 2.9 µM. The CC50 (UACC-257) was 57.8 µM, the GI50 (IGROV1) was 2.9 µM and the CC50 (IGROV1) was 43.9 µM.
Work on `CC1(/C=C/c2ccccc2O)C=Cc2ccccc2O1` (centres unmarked) [EF7] yielded a GI50 (EKVX) of 17.3 µM, a CC50 (EKVX) of 56.6 µM and a GI50 (CAKI-1) of 14.3 µM. For the same compound, the CC50 (CAKI-1) was 52.3 µM, the GI50 (786-0) was 16.4 µM and the CC50 (786-0) was 54.8 µM. For the same compound, the GI50 (MDA-MB-231) was 19.8 µM, the CC50 (MDA-MB-231) was 74.6 µM and the GI50 (SF-295) was 15.5 µM. The CC50 (SF-295) was 55.1 µM, the activity at 20 µM [1, 2] was 27% and the GI50 (NCI-H23) was 17.6 µM. For the same compound, the CC50 (NCI-H23) was 62.9 µM, the viability at 20 µM (RPMI-7951 human melanoma; [4]) was 78% and the GI50 (NCI/ADR-RES) was 19.3 µM. The CC50 (NCI/ADR-RES) was > 100 µM, the GI50 (SK-MEL-2) was 16.8 µM and the CC50 (SK-MEL-2) was 57 µM. It also gave a GI50 (SNB-19) of 17.5 µM, a CC50 (SNB-19) of 55.9 µM and a GI50 (HL-60 (TB)) of 17.7 µM. The CC50 (HL-60 (TB)) was 76 µM, the GI50 (NCI-H226) was 18.7 µM and the CC50 (NCI-H226) was 78.8 µM. For the same compound, the GI50 (NCI-H522) was 16.2 µM, the CC50 (NCI-H522) was > 100 µM and the GI50 (HT29) was 17.8 µM. The CC50 (HT29) was 60.6 µM, the GI50 (UACC-62) was 12.2 µM and the CC50 (UACC-62) was 49.6 µM. It also gave a GI50 (U251) of 16.1 µM, a CC50 (U251) of 54.4 µM and a GI50 (A498) of 17.2 µM. It also gave a CC50 (A498) of 55.6 µM, a GI50 (LOX IMVI) of 17.2 µM and a CC50 (LOX IMVI; read-out: Median Lethal Concentration (LC50)) of 73.4 µM. The GI50 (MDA-MB-435) was 17.5 µM, the CC50 (MDA-MB-435) was 56 µM and the GI50 (HS 578T) was 22.4 µM. The CC50 (HS 578T) was > 100 µM, the GI50 (MOLT-4) was 7.7 µM and the CC50 (MOLT-4) was 64.7 µM. For the same compound, the GI50 (SF-539) was 17.3 µM, the CC50 (SF-539) was 55.7 µM and the GI50 (SW-620) was 16.2 µM. It also gave a CC50 (SW-620) of 65.9 µM, a GI50 (COLO 205) of 17.5 µM and a CC50 (COLO 205) of 55.9 µM. The GI50 (PC-3) was 17.2 µM, the CC50 (PC-3) was 55.6 µM and the GI50 (ACHN) was 15.7 µM. The CC50 (ACHN) was 54 µM, the GI50 (UACC-257) was 16.9 µM and the CC50 (UACC-257) was 55.2 µM. It also gave a GI50 (IGROV1) of 15.9 µM and a CC50 (IGROV1) of 60.9 µM.

Reference: patent US7371766B2, “Curcumin analogs with anti-tumor and anti-angiogenic properties” (Emory University, priority 1999, dated 2008)
